Reference: US8530489B2 (Vertex Pharmaceuticals Incorporated, priority 2006, dated 2013)

The molecules below were run against PLK1 (Homo sapiens, UniProt P53350) (assay: PLK1 Inhibition Assay I (radioactive-phosphate incorporation)). Settings: Ki(app); PLK1 Inhibition Assay I or II (table does not say which).
Type: biochemical
Procedure, shortened: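 Ki(app) values came from non-linear regression of initial rates after background subtraction, with phosphopeptide measured by phosphocellulose filter binding and scintillation counting. PLK1 at 2 nM was preincubated with compound (typically from 10 μM, 2-fold dilutions) for 10 min, then run 240 min at 25° C with 350 μM [γ-33P]ATP and 450 μM peptide substrate in HEPES pH 7.5 buffer.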

Chain of PLK1 (P53350 whole entry): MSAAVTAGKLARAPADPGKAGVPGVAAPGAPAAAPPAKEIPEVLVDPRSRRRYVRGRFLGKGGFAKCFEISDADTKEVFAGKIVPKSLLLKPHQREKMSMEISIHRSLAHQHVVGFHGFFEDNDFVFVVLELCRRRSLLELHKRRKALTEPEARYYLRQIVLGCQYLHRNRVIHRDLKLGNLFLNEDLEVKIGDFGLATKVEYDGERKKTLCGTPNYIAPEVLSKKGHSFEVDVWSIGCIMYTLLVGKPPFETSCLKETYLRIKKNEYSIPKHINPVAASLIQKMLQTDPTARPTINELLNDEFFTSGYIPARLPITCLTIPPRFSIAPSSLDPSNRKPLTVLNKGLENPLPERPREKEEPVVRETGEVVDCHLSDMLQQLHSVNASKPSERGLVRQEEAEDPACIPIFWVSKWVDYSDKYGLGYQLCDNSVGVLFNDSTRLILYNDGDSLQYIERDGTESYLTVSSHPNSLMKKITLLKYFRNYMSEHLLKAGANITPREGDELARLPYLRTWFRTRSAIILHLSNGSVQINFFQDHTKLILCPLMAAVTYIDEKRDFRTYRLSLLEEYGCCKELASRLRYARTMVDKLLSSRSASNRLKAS

| SMILES | Ki [nM] |
| --- | --- |
| N#Cc1cnc(NCc2ccc3c(c2)CCO3)nc1-c1c[nH]c2ncc(C(F)(F)F)cc12 [Compound I-62, 2-((2,3-dihydrobenzofuran-5-yl)methylamino)-4-(5-(trifluoromethyl)-1H-pyrrolo[2,3-b]pyridin-3-yl)pyrimidine-5-carbonitrile] | 3 to 40 |
| Cc1ccc(S(=O)(=O)N2CCC(C(C)Nc3ncc(C#N)c(-c4c[nH]c5ncc(C(F)(F)F)cc45)n3)CC2)cc1 (stereo not drawn) [Compound I-165, 2-(1-(1-tosylpiperidin-4-yl)ethylamino)-4-(5-(trifluoromethyl)-1H-pyrrolo[2,3-b]pyridin-3-yl)pyrimidine-5-carbonitrile] | 3 to 40 |
| N#Cc1cnc(NC2(C(=O)NCC(F)(F)F)CCCCC2)nc1-c1c[nH]c2ncc(Cl)cc12 [IA-3, 1-(4-(5-chloro-1H-pyrrolo[2,3-b]pyridin-3-yl)-5-cyanopyrimidin-2-ylamino)-N-(2,2,2-trifluoroethyl)cyclohexanecarboxamide] | 3 to 40 |
| COCC(=O)N1CCC(C(C)Nc2ncc(C#N)c(-c3c[nH]c4ncc(C(F)(F)F)cc34)n2)CC1 (stereo not drawn) [Compound I-183, 2-(1-(1-(2-methoxyacetyl)piperidin-4-yl)ethylamino)-4-(5-(trifluoromethyl)-1H-pyrrolo[2,3-b]pyridin-3-yl)pyrimidine-5-carbonitrile] | < 3 |
| C[C@@H](Nc1ncc(C#N)c(-c2c[nH]c3ncc(C(F)(F)F)cc23)n1)C1CCN(C(=O)CO)CC1 [Compound I-205, 2-((R)-1-(1-(2-hydroxyacetyl)piperidin-4-yl)ethylamino)-4-(5-(trifluoromethyl)-1H-pyrrolo[2,3-b]pyridin-3-yl)pyrimidine-5-carbonitrile] | < 3 |
| CC(C)(Nc1ncc(C#N)c(-c2c[nH]c3ncc(Cl)cc23)n1)C(=O)NCCC(F)(F)F | > 40 |
| CC(Nc1ncc(C#N)c(-c2c[nH]c3ncc(C(F)(F)F)cc23)n1)C1CCN(C(=O)CO)CC1 (stereo not drawn) [Compound I-192, 2-(1-(1-(2-hydroxyacetyl)piperidin-4-yl)ethylamino)-4-(5-(trifluoromethyl)-1H-pyrrolo[2,3-b]pyridin-3-yl)pyrimidine-5-carbonitrile] | < 3 |
| N#Cc1cnc(NCC2CCOCC2)nc1-c1c[nH]c2ncc(C(F)(F)F)cc12 [Compound I-57, 2-((tetrahydro-2H-pyran-4-yl)methylamino)-4-(5-(trifluoromethyl)-1H-pyrrolo[2,3-b]pyridin-3-yl)pyrimidine-5-carbonitrile] | 3 to 40 |
| CC(=O)Nc1ccc(CNc2ncc(C#N)c(-c3c[nH]c4ncc(C(F)(F)F)cc34)n2)cc1 [Compound I-72, N-(4-((5-cyano-4-(5-(trifluoromethyl)-1H-pyrrolo[2,3-b]pyridin-3-yl)pyrimidin-2-ylamino)methyl)phenyl)acetamide] | 3 to 40 |
| CC(Nc1ncc(C#N)c(-c2c[nH]c3ncc(C(F)(F)F)cc23)n1)C1(F)CCN(CC#N)CC1 (stereo not drawn) [Compound I-238, 2-(1-(1-(cyanomethyl)-4-fluoropiperidin-4-yl)ethylamino)-4-(5-(trifluoromethyl)-1H-pyrrolo[2,3-b]pyridin-3-yl)pyrimidine-5-carbonitrile] | < 3 |
| CC(Nc1ncc(C#N)c(-c2c[nH]c3ncc(C(F)(F)F)cc23)n1)C1CCN(CC#N)CC1 (stereo not drawn) [Compound I-166, 2-(1-(1-(cyanomethyl)piperidin-4-yl)ethylamino)-4-(5-(trifluoromethyl)-1H-pyrrolo[2,3-b]pyridin-3-yl)pyrimidine-5-carbonitrile] | < 3 |
| C[C@@H](Nc1ncc(C#N)c(-c2c[nH]c3ncc(C(F)(F)F)cc23)n1)C1CCN(CCO)CC1 [Compound I-215, 2-((R)-1-(1-(2-hydroxyethyl)piperidin-4-yl)ethylamino)-4-(5-(trifluoromethyl)-1H-pyrrolo[2,3-b]pyridin-3-yl)pyrimidine-5-carbonitrile] | < 3 |
| N#Cc1cnc(N2CCC[C@@H]2CN)nc1-c1c[nH]c2ncc(C(F)(F)F)cc12 [Compound I-87, 2-((R)-2-(aminomethyl)pyrrolidin-1-yl)-4-(5-(trifluoromethyl)-1H-pyrrolo[2,3-b]pyridin-3-yl)pyrimidine-5-carbonitrile] | > 40 |
| C[C@@H](Nc1ncc(C#N)c(-c2c[nH]c3ncc(C(F)(F)F)cc23)n1)C1CCN(C(=O)[C@@H](N)CO)CC1 [Compound I-239, 2-((R)-1-(1-((S)-2-amino-3-hydroxypropanoyl)piperidin-4-yl)ethylamino)-4-(5-(trifluoromethyl)-1H-pyrrolo[2,3-b]pyridin-3-yl)pyrimidine-5-carbonitrile] | < 3 |

Continued, values first:

| Ki [nM] | SMILES |
| --- | --- |
| < 3 | CC(C)N1CCN(c2ccc([C@@H](C)Nc3ncc(C#N)c(-c4c[nH]c5ncc(C(F)(F)F)cc45)n3)cn2)CC1 [Compound I-284, 2-((R)-1-(6-(4-isopropylpiperazin-1-yl)pyridin-3-yl)ethylamino)-4-(5-(trifluoromethyl)-1H-pyrrolo[2,3-b]pyridin-3-yl)pyrimidine-5-carbonitrile] |
| > 40 | COc1ccccc1CNc1ncc(C#N)c(-c2c[nH]c3ncc(C(F)(F)F)cc23)n1 [Compound I-15, 2-(2-methoxybenzylamino)-4-(5-(trifluoromethyl)-1H-pyrrolo[2,3-b]pyridin-3-yl)pyrimidine-5-carbonitrile] |
| > 40 | N#Cc1cnc(NCc2ccc(C(F)(F)F)nc2)nc1-c1c[nH]c2ncc(C(F)(F)F)cc12 [Compound I-32, 4-(5-(trifluoromethyl)-1H-pyrrolo[2,3-b]pyridin-3-yl)-2-((6-(trifluoromethyl)pyridin-3-yl)methylamino)pyrimidine-5-carbonitrile] |
| < 3 | CCS(=O)(=O)Nc1ccc([C@@H](C)Nc2ncc(C#N)c(-c3c[nH]c4ncc(C(F)(F)F)cc34)n2)cc1 [Compound I-169, N-(4-((1R)-1-(5-cyano-4-(5-(trifluoromethyl)-1H-pyrrolo[2,3-b]pyridin-3-yl)pyrimidin-2-ylamino)ethyl)phenyl)ethanesulfonamide] |
| > 40 | COC[C@@H](Nc1ncc(C#N)c(-c2c[nH]c3ncc(C(F)(F)F)cc23)n1)c1ccccc1 [Compound I-43, 2-((S)-2-methoxy-1-phenylethylamino)-4-(5-(trifluoromethyl)-1H-pyrrolo[2,3-b]pyridin-3-yl)pyrimidine-5-carbonitrile] |
| > 40 | N#Cc1cnc(NCCCn2ccnc2)nc1-c1c[nH]c2ncc(C(F)(F)F)cc12 [Compound I-80, 2-(3-(1H-imidazol-1-yl)propylamino)-4-(5-(trifluoromethyl)-1H-pyrrolo[2,3-b]pyridin-3-yl)pyrimidine-5-carbonitrile] |
| < 3 | C[C@@H](Nc1ncc(C#N)c(-c2c[nH]c3ncc(C(F)(F)F)cc23)n1)[C@H]1CC[C@@H](O)CC1 [Compound I-180, 2-((R)-1-((1s,4S)-4-hydroxycyclohexyl)ethylamino)-4-(5-(trifluoromethyl)-1H-pyrrolo[2,3-b]pyridin-3-yl)pyrimidine-5-carbonitrile] |
| < 3 | CC(Nc1ncc(C#N)c(-c2c[nH]c3ncc(C(F)(F)F)cc23)n1)c1ccc(C2(O)CCN(C)CC2)nc1 (stereo not drawn) [Compound I-266, 2-(1-(6-(4-hydroxy-1-methylpiperidin-4-yl)pyridin-3-yl)ethylamino)-4-(5-(trifluoromethyl)-1H-pyrrolo[2,3-b]pyridin-3-yl)pyrimidine-5-carbonitrile] |
| < 3 | CC(Nc1ncc(C#N)c(-c2c[nH]c3ncc(C(F)(F)F)cc23)n1)c1cccnc1 (stereo not drawn) [Compound I-51, 2-(1-(pyridin-3-yl)ethylamino)-4-(5-(trifluoromethyl)-1H-pyrrolo[2,3-b]pyridin-3-yl)pyrimidine-5-carbonitrile] |
| 3 to 40 | C[C@@H](O)CNc1ncc(C#N)c(-c2c[nH]c3ncc(C(F)(F)F)cc23)n1 [Compound I-97, 2-((R)-2-hydroxypropylamino)-4-(5-(trifluoromethyl)-1H-pyrrolo[2,3-b]pyridin-3-yl)pyrimidine-5-carbonitrile] |
| < 3 | C[C@@H](Nc1ncc(C#N)c(-c2c[nH]c3ncc(C(F)(F)F)cc23)n1)c1ccc(N2CCCC2=O)cc1 [Compound I-145, 2-((R)-1-(4-(2-oxopyrrolidin-1-yl)phenyl)ethylamino)-4-(5-(trifluoromethyl)-1H-pyrrolo[2,3-b]pyridin-3-yl)pyrimidine-5-carbonitrile] |
| > 40 | N#Cc1cnc(NCc2ccncc2)nc1-c1c[nH]c2ncc(C(F)(F)F)cc12 [Compound I-23, 2-(pyridin-4-ylmethylamino)-4-(5-(trifluoromethyl)-1H-pyrrolo[2,3-b]pyridin-3-yl)pyrimidine-5-carbonitrile] |
| < 3 | CC(C)N1CCN(c2ccc([C@@H](C)Nc3ncc(C#N)c(-c4c[nH]c5ncc(C(F)(F)F)cc45)n3)cc2)CC1 [Compound I-140, 2-((R)-1-(4-(4-isopropylpiperazin-1-yl)phenyl)ethylamino)-4-(5-(trifluoromethyl)-1H-pyrrolo[2,3-b]pyridin-3-yl)pyrimidine-5-carbonitrile] |
| < 3 | C[C@@H](Nc1ncc(C#N)c(-c2c[nH]c3ncc(C(F)(F)F)cc23)n1)c1ccc(N(C)C)cc1 [Compound I-133, 2-((R)-1-(4-(dimethylamino)phenyl)ethylamino)-4-(5-(trifluoromethyl)-1H-pyrrolo[2,3-b]pyridin-3-yl)pyrimidine-5-carbonitrile] |
| 3 to 40 | N#Cc1cnc(Nc2ccccc2)nc1-c1c[nH]c2ncc(C(F)(F)F)cc12 [Compound I-25, 2-(phenylamino)-4-(5-(trifluoromethyl)-1H-pyrrolo[2,3-b]pyridin-3-yl)pyrimidine-5-carbonitrile] |
| < 3 | C[C@@H](Nc1ncc(C#N)c(-c2c[nH]c3ncc(C(F)(F)F)cc23)n1)c1ccc(N(C)CCN(C)C)nc1 [Compound I-282, 2-((R)-1-(6-((2-(dimethylamino)ethyl)(methyl)amino)pyridin-3-yl)ethylamino)-4-(5-(trifluoromethyl)-1H-pyrrolo[2,3-b]pyridin-3-yl)pyrimidine-5-carbonitrile] |
